Assay results published in patent US20250206732A1, “COMPOUNDS AND METHODS FOR THE TARGETED DEGRADATION OF KRAS” (Arvinas Operations, Inc., priority 2022, published 2025).

Molecular target: T1, AsPC-1 HiBiT-KRASG12D (Homo sapiens, UniProt P01116, G12D)
T1 construct: insert the HiBiT tag onto the N-terminus of one or more of the endogenous KRAS alleles; endogenous in cells; host or cells: AsPC-1 (ATCC CRL-1682), CRISPR-Cas9 knock-in clone, one tagged allele
Assay: HiBiT degradation assay (G12D), AsPC-1 HiBiT-KRASG12D cells
Type: cell-based
Details: 24 hours treatment; for Dmax: ASPC1, AsPC-1 HiBiT-KRASG12D cells, maximum degradation observed; for DC50: AsPC-1 HiBiT-KRASG12D cells, HiBiT luminescence
Description: Reagents. […] SW1573 cells are homozygous for the G12C mutation in KRAS, AsPC-1 cells are homozygous for the G12D mutation, and SW620 cells are homozygous for the G12V mutation. […] For degradation assays, 384 well plates were used. Alamar blue was purchased from ThermoFisher scientific (A50101) and used according to manufacturer instructions. The Nano-Glo® HiBiT Lytic Detection System and Nano-Glo® HiBiT Blotting System were purchased from Promega (#N3050 and #N2410) and used according to manufacturer instructions.
To create the AsPC-1 HiBiT-KRASG12D cell line, CRISPR-Cas9 was used to insert the HiBiT tag onto the N-terminus of one or more of the endogenous KRAS alleles. […] After knock-in of the tag, individual clones were isolated by single cell dilution and screened for HiBiT insertion by PCR. […] This clone was used in further studies.
HiBiT degradation assays (G12C and G12D). […] All assays were performed in triplicate. Cells were treated with compounds for 24 hours at 37° C. in an incubator containing 5% CO2. Following treatment, alamar blue was used to determine if any compounds led to a loss in cell viability after 24 hours. The 10× alamar blue reagent was added to a final concentration of 1× as recommended by the manufacturer and cells were returned to the incubator for 4 hours. Plates were then allowed to equilibrate to room temperature and fluorescence was measured using a Perkin-Elmer EnVision. After completion of the fluorescence read, the liquid from each well was removed and the cells were washed with PBS. The Nano-Glo® HiBiT detection reagent was prepared according to the manufacturer's instructions and added to each well after the PBS wash was removed. Following incubation at room temperature for 45 minutes, the luminescence was read using the ultra-sensitive luminescence aperture on the Envision instrument.
Data analysis. Fluorescence values from the alamar blue treatment were normalized to the DMSO-only control for each compound titration.

T1 sequence (P01116 1-188 isoform P01116-2 G12D): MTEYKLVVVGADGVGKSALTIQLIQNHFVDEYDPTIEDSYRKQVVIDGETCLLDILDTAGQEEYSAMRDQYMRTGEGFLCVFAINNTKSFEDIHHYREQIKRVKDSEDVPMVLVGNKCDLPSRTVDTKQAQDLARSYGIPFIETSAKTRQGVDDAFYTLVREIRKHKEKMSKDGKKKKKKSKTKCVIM

| Compound | Dmax [%] | DC50 [nM] |
| --- | --- | --- |
| CCc1cccc2cc(O)cc(-c3ncc4c(N5CC6CCC(C5)N6)nc(OCCN5CCC6(CC5)CC(Oc5cc([C@@H](C(=O)N7C[C@H](O)C[C@H]7C(=O)N[C@@H](C)c7ccc(-c8scnc8C)cc7)C(C)C)on5)C6)nc4c3F)c12 [Compound 232] | 20 to 60 | 1000 to 3000 |
| C#Cc1c(F)ccc2cc(O)cc(-c3ncc4c(N5CC6CCC(C5)N6)nc(OC[C@]56CCCN5[C@H](COc5cc([C@@H](C(=O)N7C[C@H](O)C[C@H]7C(=O)N[C@@H](C)c7ccc(-c8scnc8C)cc7)C(C)C)on5)CC6)nc4c3F)c12 [Compound 312, (2S,4R)-1-[(2S)-2-[3-[[(3S,8R)-8-[[4-(3,8-diazabicyclo[3.2.1]octan-3-yl)-7-(8-ethynyl-7-fluoro-3-hydroxy-1-naphthyl)-8-fluoro-pyrido[4,3-d]pyrimidin-2-yl]oxymethyl]-1,2,3,5,6,7-hexahydropyrrolizin-3-yl]methoxy]isoxazol-5-yl]-3-methyl-butanoyl]-4-hydroxy-N-[(1S)-1-[4-(4-methylthiazol-5-yl)phenyl]ethyl]pyrrolidine-2-carboxamide] | 20 to 60 | 1000 to 3000 |
| CCc1cccc2cc(O)cc(-c3ncc4c(N5CC6CCC(C5)N6)nc(OCCN5CCC(CC6CCN(c7cc([C@H](C(=O)N8C[C@H](O)C[C@H]8C(=O)N[C@@H](C)c8ccc(-c9ccnn9C)cc8)C(C)C)on7)CC6)CC5)nc4c3F)c12 [Compound 202, (2S,4R)-1-[(2R)-2-(3-{4-[(1-{2-[(4-{3,8-diazabicyclo[3.2.1]octan-3-yl}-7-(8-ethyl-3-hydroxynaphthalen-1-yl)-8-fluoropyrido[4,3-d]pyrimidin-2-yl)oxy]ethyl}piperidin-4-yl)methyl]piperidin-1-yl}-1,2-oxazol-5-yl)-3-methylbutanoyl]-4-hydroxy-N-[(1S)-1-[4-(1-methyl-1H-pyrazol-5-yl)phenyl]ethyl]pyrrolidine-2-carboxamide] | 80 to 100 | < 600 |
| CCc1cccc2cc(O)cc(-c3ncc4c(N5CC6CCC(C5)N6)nc(OC5CCN(CC6CCN(c7cc([C@H](C(=O)N8C[C@H](O)C[C@H]8C(=O)N[C@@H](C)c8ccc(-c9scnc9C)cc8)C(C)C)on7)CC6)CC5)nc4c3F)c12 [Compound 166, (2S,4R)-1-[(2R)-2-{3-[4-({4-[(4-{3,8-diazabicyclo[3.2.1]octan-3-yl}-7-(8-ethyl-3-hydroxynaphthalen-1-yl)-8-fluoropyrido[4,3-d]pyrimidin-2-yl)oxy]piperidin-1-yl}methyl)piperidin-1-yl]-1,2-oxazol-5-yl}-3-methylbutanoyl]-4-hydroxy-N-[(1S)-1-[4-(4-methyl-1,3-thiazol-5-yl)phenyl]ethyl]pyrrolidine-2-carboxamide] | 20 to 60 | < 600 |
| C#Cc1c(F)ccc2cc(O)cc(-c3ncc4c(N5CC6CCC(C5)N6)nc(OCCN5CCC(C6CN(c7cc([C@H](C(=O)N8C[C@H](O)C[C@H]8C(=O)N[C@@H](C)c8ccc(-c9scnc9C)cc8)C(C)C)on7)C6)CC5)nc4c3F)c12 [Compound 185] | 80 to 100 | < 600 |
| CCc1cccc2cc(O)cc(-c3ncc4c(N5CC6CCC(C5)N6)nc(OC[C@@]56CCCN5[C@H](COC(=O)NCc5cc([C@H](C(=O)N7C[C@H](O)C[C@H]7C(=O)N[C@@H](C)c7ccc(-c8scnc8C)cc7)C(C)C)on5)CC6)nc4c3F)c12 [Compound 104, [(3S,7aS)-7a-{[(4-{3,8-diazabicyclo[3.2.1]octan-3-yl}-7-(8-ethyl-3-hydroxynaphthalen-1-yl)-8-fluoropyrido[4,3-d]pyrimidin-2-yl)oxy]methyl}-hexahydro-1H-pyrrolizin-3-yl]methyl N-({5-[(2R)-1-[(2S,4R)-4-hydroxy-2-{[(1S)-1-[4-(4-methyl-1,3-thiazol-5-yl)phenyl]ethyl]carbamoyl}pyrrolidin-1-yl]-3-methyl-1-oxobutan-2-yl]-1,2-oxazol-3-yl}methyl) carbamate] | 80 to 100 | < 600 |
| CCc1cccc2cc(O)cc(-c3ncc4c(N5CC6CCC(C5)N6)nc(OCCN5CCC(F)(CN6CCN(c7cc([C@@H](C(=O)N8C[C@H](O)C[C@H]8C(=O)N[C@@H](C)c8ccc(-c9ccnn9C)cc8)C(C)C)on7)CC6)CC5)nc4c3F)c12 [Compound 197, (2S,4R)-1-[(2S)-2-(3-{4-[(1-{2-[(4-{3,8-diazabicyclo[3.2.1]octan-3-yl}-7-(8-ethyl-3-hydroxynaphthalen-1-yl)-8-fluoropyrido[4,3-d]pyrimidin-2-yl)oxy]ethyl}-4-fluoropiperidin-4-yl)methyl]piperazin-1-yl}-1,2-oxazol-5-yl)-3-methylbutanoyl]-4-hydroxy-N-[(1S)-1-[4-(1-methyl-1H-pyrazol-5-yl)phenyl]ethyl] pyrrolidine-2-carboxamide] | < 20 | 1000 to 3000 |
| Cc1ncsc1-c1ccc([C@H](C)NC(=O)[C@@H]2C[C@@H](O)CN2C(=O)[C@H](c2cc(OC3CN(C(=O)OC[C@@H]4CC[C@@H](COc5nc(N6CC7CCC(C6)N7)c6cnc(-c7cc(O)cc(Cl)c7C7CC7)c(F)c6n5)N4C)C3)no2)C(C)C)cc1 [Compound 287] | < 20 | 1000 to 3000 |
| CCc1cccc2cc(O)cc(-c3ncc4c(N5CC6CCC(C5)N6)nc(OC[C@]56CCCN5[C@@H](COC(=O)NCc5cc([C@@H](C(=O)N7C[C@H](O)C[C@H]7C(=O)N[C@@H](C)c7ccc(-c8scnc8C)cc7)C(C)C)on5)CC6)nc4c3F)c12 [Compound 103, [(3R,7aR)-7a-{[(4-{3,8-diazabicyclo[3.2.1]octan-3-yl}-7-(8-ethyl-3-hydroxynaphthalen-1-yl)-8-fluoropyrido[4,3-d]pyrimidin-2-yl)oxy]methyl}-hexahydro-1H-pyrrolizin-3-yl]methyl N-({5-[(2S)-1-[(2S,4R)-4-hydroxy-2-{[(1S)-1-[4-(4-methyl-1,3-thiazol-5-yl)phenyl]ethyl]carbamoyl}pyrrolidin-1-yl]-3-methyl-1-oxobutan-2-yl]-1,2-oxazol-3-yl}methyl) carbamate] | 20 to 60 | 1000 to 3000 |
| Cc1ncsc1-c1ccc([C@H](C)NC(=O)[C@@H]2C[C@@H](O)CN2C(=O)[C@H](c2cc(OC[C@@H]3CC[C@]4(COc5nc(N6CC7CCC(C6)N7)c6cnc(-c7cccc8ccc(F)c(F)c78)c(F)c6n5)CCCN34)no2)C(C)C)cc1 [Compound 62, (2S,4R)-1-[(2S)-2-(3-{[(3S,7aS)-7a-{[(4-{3,8-diazabicyclo[3.2.1]octan-3-yl}-7-(7,8-difluoronaphthalen-1-yl)-8-fluoropyrido[4,3-d]pyrimidin-2-yl)oxy]methyl}-hexahydro-1H-pyrrolizin-3-yl]methoxy}-1,2-oxazol-5-yl)-3-methylbutanoyl]-4-hydroxy-N-[(1S)-1-[4-(4-methyl-1,3-thiazol-5-yl)phenyl]ethyl]pyrrolidine-2-carboxamide] |  | > 3000 |
| CCc1cccc2cc(O)cc(-c3ncc4c(N5CC6CCC(C5)N6)nc(OCCN5CCC(F)(CN6CCN(c7cc([C@H](C(=O)N8C[C@H](O)C[C@H]8C(=O)N[C@@H](C)c8ccc(-c9scnc9C)cc8)C(C)C)on7)[C@H](C)C6)CC5)nc4c3F)c12 [Compound 194, (2S,4R)-1-[(2R)-2-{3-[(2R)-4-[(1-{2-[(4-{3,8-diazabicyclo[3.2.1]octan-3-yl}-7-(8-ethyl-3-hydroxynaphthalen-1-yl)-8-fluoropyrido[4,3-d]pyrimidin-2-yl)oxy]ethyl}-4-fluoropiperidin-4-yl)methyl]-2-methylpiperazin-1-yl]-1,2-oxazol-5-yl}-3-methylbutanoyl]-4-hydroxy-N-[(1S)-1-[4-(4-methyl-1,3-thiazol-5-yl)phenyl]ethyl]pyrrolidine-2-carboxamide] | 80 to 100 | < 600 |
| CCc1cccc2cc(O)cc(-c3ncc4c(N5CC6CCC(C5)N6)nc(OC[C@@]56CCCN5[C@H](COC(=O)N(C)Cc5cc([C@H](C(=O)N7C[C@H](O)C[C@H]7C(=O)N[C@@H](C)c7ccc(-c8scnc8C)cc7)C(C)C)on5)CC6)nc4c3F)c12 [Compound 90, [(3S,7aS)-7a-{[(4-{3,8-diazabicyclo[3.2.1]octan-3-yl}-7-(8-ethyl-3-hydroxynaphthalen-1-yl)-8-fluoropyrido[4,3-d]pyrimidin-2-yl)oxy]methyl}-hexahydro-1H-pyrrolizin-3-yl]methyl N-({5-[(2R)-1-[(2S,4R)-4-hydroxy-2-{[(1S)-1-[4-(4-methyl-1,3-thiazol-5-yl)phenyl]ethyl]carbamoyl}pyrrolidin-1-yl]-3-methyl-1-oxobutan-2-yl]-1,2-oxazol-3-yl}methyl)-N-methylcarbamate] | 80 to 100 | < 600 |
